Source: a melting point compilation (Tetko et al.; mined from patent text by program, amines drawn as free bases though some values may be those of a salt)

| melting point [°C] | Compound |
| --- | --- |
| 144 to 145 | CSC(Oc1cc2cc(Br)cnc2cc1F)C(=O)NC(C)(C)C (configuration not stated) |
| 182 to 184 | O=C(Nc1ccc(S(=O)(=O)F)cc1)c1cc(Cl)ccc1[N+](=O)[O-] |
| 208 to 210 | N#Cc1cccnc1N1CCN(Cc2nc3ccccc3[nH]2)CC1 |
| 63 to 65 | CCCOc1ccc2c(c1)C(=O)C[C@H]2c1ccc2c(c1)OCO2 |
| > 250 | COc1cc2cc(CO)c(CO)c(-c3ccnc(-n4nc(O)c5ccccc5c4=O)c3)c2cc1OC |
| 180 to 182 | CSc1nccc(-n2nnc3ccccc32)n1 |
| 93 to 116 | CCn1c(C)c(C2(N(c3ccccc3)c3ccc(NC(C)=O)cc3)OC(=O)c3ccccc32)c2ccccc21 (configuration not stated) |
| 285 to 288 | Nc1nc(-c2ccco2)c(N2CCOCC2)s1 |
| 220 | Cc1nn(-c2c(Cl)cc(Cl)cc2Cl)c(N)c1C(=O)c1ccccc1Cl |
| 241 to 243 | CCn1c(=O)c2[nH]c(/C=C/c3cccc(Oc4ccccc4)c3)nc2n(CC)c1=O |
| 109 to 110 | O=C(NCCN1CCC(Oc2ccc(F)cc2Cl)CC1)c1ccc(-n2cccn2)nc1 |
| 194 to 196 | COCOc1cccc2c(=O)[nH]c(C3CCN(C)CC3)cc12 |
| 230 to 234 | NC(=O)C1C=Cc2cc(Cl)ccc2N1C(=O)c1ccccc1 (configuration not stated) |
| 62 to 66 | C=CCOc1cc(F)nc(N)n1 |
| 116 to 119 | Cc1ccc2c(c1)c(=O)c1c(cnn1C)n2CCCl |
| 127 to 129 | Cc1c(N2CCC(C(N)c3ccccn3)C2)c(F)c(N)c2c(=O)c(C(=O)O)cn(C3CC3F)c12 (configuration not stated) |
| 163 to 165 | Cc1oc(-c2ccccc2)nc1CCOc1ccc(CC(F)(C(=O)O)c2ccccc2)cc1 (configuration not stated) |
| 104 to 110 | OC(CCn1ccnc1)c1ccc(Br)cc1 (configuration not stated) |
| 220 to 222 | COc1cc(Nc2c(C#N)cnc3cc(-c4ccc(CN5CCOCC5)cn4)ccc23)c(Cl)cc1Cl |
| 212 to 213 | C=C(C)C(=O)NC1=NN(c2ccc(Cl)c(Cl)c2)C(=O)C1 |
| 153 | Cc1ccc(C)c(C(=O)NCCC23CC4CC(CC(C4)C2)C3)c1 |
| 171 to 172 | O=C(Nc1ccc(OC(F)(F)F)cc1)c1cccc(Cl)c1[N+](=O)[O-] |
| 203 to 205 | CCCn1c(=O)c(C#N)c(Cl)c2ccccc21 |
| 93 to 94 | O=C(N[C@H]1CCOC1=O)[C@H](Cc1ccccc1)NS(=O)(=O)c1cccc2ccccc12 |
| 165 to 166 | O=C(c1ccco1)N1CCN(c2cc(-c3ccc(F)cc3)c3c(n2)CCC3)CC1 |

| melting point [°C] | Compound |
| --- | --- |
| 173 to 175 | COc1cc(-n2c(C#N)c3n(c2=O)CCCC3)c(F)cc1Cl |
| 238 to 239 | NNC(=O)c1cc2c(s1)-c1ccccc1OC2c1ccccc1 (configuration not stated) |
| 120 to 121 | CCOC(=O)c1cn(Cc2ccccc2)nc1OCc1ccc(OCc2nc(-c3ccco3)oc2C)c(C)c1 |
| 144 to 145 | O=C(O)C1=Cc2cc(C(F)(F)F)ccc2OC1C(F)(F)F (configuration not stated) |
| 88 to 90 | CCOCc1cc2cccc(OC)c2o/c1=N\c1ccccc1 |
| 202 to 205 | O=C(O)c1cnncc1C(=O)c1cc(F)ccc1F |
| > 280 | O=C(O)c1cn(-c2ccc(F)c(O)c2)c2c(Cl)c(F)c(F)cc2c1=O |
| 235 to 238 | Cn1nnnc1-c1cn(C)c2cc(N3CCOCC3)ccc2c1=O |
| 190 to 193 | O=C(Oc1cccc2cnccc12)c1cc2ccccc2oc1=O |
| 172 | CCCCOC(=O)CSc1ncnc2c(O)n(C)nc12 |
| 210 | O=C(O)Cc1cc(=O)oc2cc(O)ccc12 |
| 105 to 107 | CCOC(=O)c1ccc(CCN2CCN(C(=O)CCc3cc(C(C)(C)C)c(O)c(C(C)(C)C)c3)CC2)cc1 |
| 119 to 120 | O=CC(=Cc1ccc(OCc2ccccc2)cc1)C(C=O)=Cc1ccc(OCc2ccccc2)cc1 |
| 89 to 90 | CC(C)c1nn(-c2ccc(C(F)(F)F)cc2)cc1CCCOc1ccccc1CC(=O)O |
| 114 to 115 | C=CCn1nc(-c2ccc(OC)cc2)c(-c2ccc(OC)cc2)cc1=O |
| 204 to 206 | CC1(C)OC(=S)N(c2cc(F)cc(C(F)(F)F)c2)c2ccccc21 |
| 111 to 112 | CS(=O)(=O)OCC(C(=O)N1CCC(=C2c3ccc(Cl)cc3CCc3cccnc32)CC1)c1ccccc1 (configuration not stated) |
| 255 | CCCCc1cn(Cc2ccc(-c3ccccc3C(=O)O)cc2)c2c(c1=O)CC(C)CC2 (configuration not stated) |
| 180 | COc1ccc(-c2nc(-c3nccn3Cc3ccccc3)[nH]c2-c2ccc(OC)cc2)cc1 |
| > 280 | O=c1n(CC(F)(F)F)c2cc(F)ccc2n1C1CCNCC1 |
| 177 to 178 | O=C(O)CCc1ccc(CCN2CCN(S(=O)(=O)c3ccccc3)CC2)cc1 |
| 98 to 100 | COC(=O)C(C)(C)OCC#Cc1cc(Cl)ccc1NS(=O)(=O)c1ccc2c(c1)OCCN2C |
| 47 to 51 | CC(C)(CNC(=O)CSCC(=O)O)SN=O |
| 179 to 181 | O=C(NCc1cccs1)c1cc2ccnc(Cl)c2[nH]1 |
| 151 to 153 | CC(=O)c1ccc(SCC(=O)O)cc1 |

| melting point [°C] | Compound |
| --- | --- |
| 283 to 286 | NC(=O)CN1C(=O)COc2cc(F)c(N3C(=O)C4=C(CCCC4)C3=O)cc21 |
| 148 to 150 | Cc1c(F)c(N2CCN(C=O)C(C)C2)cc2c1C(=O)C(C=O)CN2C1CC1 (configuration not stated) |
| 182 to 184 | Cc1cc2c(cc1-c1cc(C=C3SC(=O)NC3=O)ccc1OC(F)(F)F)N(C)C(=O)CC2(C)C |
| 93 | CCN(CC)c1cc(=S)ss1 |
| 132 to 133 | CC(=O)Oc1c(C)c(C=O)nc2ccccc12 |
| 167 to 170 | NS(=O)(=O)c1ccccc1-n1cccn1 |
| 292 to 295 | CCc1c2nc(-c3cc(S(C)(=O)=O)ccc3OCC(C)C)[nH]c(=O)c2nn1C1CCN(C)CC1 |
| 103 to 106 | Cc1cc(C)cc(C(=O)c2c(-c3ccc(OCCCN(C)C)cc3)oc3ccccc23)c1 |
| 77 | COC(=O)c1ccc(OCC(C)C)c([N+](=O)[O-])c1 |
| 105 to 108 | CCCCCCCCSC(CCCCC)CCn1ccnc1 (configuration not stated) |
| 254 to 255 | O=C(Nc1ccn2cc(CO)nc2c1)c1cc2cc(C(F)(F)F)ccc2n1Cc1cccc(F)c1 |
| 202 to 204 | Nc1nc(COc2ccccc2)nc2nccnc12 |
| 139 to 140 | CCOC(CNC(=O)Nc1ccc(-n2cncn2)cc1)OCC |
| 169 to 170 | NCCCNC(=O)c1cccc(Nc2nccc(-c3ccnc(NCCCO)c3)n2)c1 |
| 208 to 210 | CCOC(=O)c1c2ccc(CC(=O)NOCC(N)=O)ccc-2c(C(=O)OCC)c1N |
| 94 | CN(C(=O)COc1nnc(-c2ccco2)s1)c1ccccc1 |
| 244 to 247 | CC1(C)C(=O)Nc2cc(O)c([N+](=O)[O-])cc21 |
| 262 to 264 | O=C(O)c1cncc(O)c1C(=O)c1cc(Cl)ccc1F |
| 77 to 81 | c1ccc(-n2nnnc2OCC2CO2)cc1 (configuration not stated) |
| 57 to 65 | COC(=O)c1cc(N)cc(CNC(=O)OC(C)(C)C)c1 |
| 109 to 112 | CC(C)(C)OC(=O)Nc1cn(-c2cccnc2)nc1Br |
| 123 to 124 | NC(=O)OCC(O)COc1noc2ccc(Cl)cc12 (configuration not stated) |
| 55.4 to 56.9 | COc1ccc(-c2nn(CC=Cc3ccc(F)cc3F)c(=O)cc2-c2ccncc2)cc1 |
| 200 to 201 | CCOC(=O)NN=Cc1cn(-c2ccccc2)nc1-c1ccc([N+](=O)[O-])o1 |
| 114 to 116 | CCCCNc1c(C(=O)OCC)cnc2c1c(C)nc1cc(C)nn12 |

| melting point [°C] | Compound |
| --- | --- |
| 269 to 271 | CC(=O)Nc1c(C(=O)c2cnccn2)[nH]c2cc(Cl)ccc12 |
| 263 to 265 | Nc1c(-c2cc(Cl)ccc2O)c2c(Cl)c(Cl)ccc2[nH]c1=O |
| 153 to 160 | CCc1[nH]c(C)c(C(C)=O)c1C |
| 69 | COc1ccc(C2CC(=O)N(C)C2)cc1OC (configuration not stated) |
| 64 to 66 | COC(=O)c1ncoc1-c1cccs1 |
| 70 to 71 | CCc1cnc(-n2cc(CCCO)c(C(C)C)n2)nc1 |
| 222 to 223 | COC(=O)c1n[nH]c(=O)c2ccc(Cl)cc12 |
| 102 | CCCCCC(=O)Nc1ncc(OC)cn1 |
| 140 | CCOc1ccc2c(c1)n(C1CCCC1)c(=O)n2Cc1ccc(NC(=O)N(CC)CC)cc1OC |
| 42 to 43 | CCCc1cc2c(c(Br)c1O)CCO2 |
| 79 to 81 | CNc1cccc(OCc2ccccc2)c1N |
| 264 | O=c1[nH]n(-c2ccnc(N[C@H]3CC[C@H](O)CC3)n2)c2ccccc12 |
| 186 to 187 | Cn1c(=O)oc2cc3c(cc21)OCC31C(=O)N(CC2CCCO2)c2ccccc21 (configuration not stated) |
| 76 to 77 | O=C(O)CCCOc1cccc(OCc2ccccc2)c1 |
| 139 to 140 | CCC(=O)NCCC1c2cc(OC)ccc2-c2ccc(OC)cc21 |
| 176 to 178 | COc1cc(OC)nc(NC(=O)NS(=O)(=O)c2ccccc2C(CF)OC(C)=O)n1 (configuration not stated) |
| 54 to 58 | CON(C)C(=O)c1ccc(-c2ccc(C)cc2)o1 |
| 217 to 220 | Cn1nnnc1-c1cn(C)c2cc(S(=O)c3ccccc3)ccc2c1=O (configuration not stated) |
| 164 to 165 | COC(=O)C(C)(C)c1ccc2c(c1)c(=O)[nH]c(=O)n2CCCCBr |
| 333 to 335 | CN1CCN(c2ncnc3nc(-c4ccncc4)[nH]c23)CC1 |
| 109 to 112 | CC(C)n1cnc2c(N[C@H](CO)c3ccccc3)nc(NC[C@@H](C)O)nc21 |
| 116 | CC(C)(C)OC(=O)C[C@H](NC(=O)CNC(=O)c1csc(NC(=O)NCc2ccccc2)n1)C(=O)Nc1ccccc1C(=O)OC(C)(C)C |
| 148 | Cc1csc2nc3cc(F)ccc3n12 |
| > 300 | Nc1nc(Oc2cc(F)cc(F)c2)nc2nc(-c3ccco3)nn12 |

| Compound | melting point [°C] |
| --- | --- |
| CC(C)C(=O)NC1CCc2c(c3cc(C(N)=O)ccc3n2Cc2cccc(F)c2)C1 (configuration not stated) | 192 to 194 |
| N#Cc1nn(-c2c(Cl)cc(C(F)(F)F)cc2Cl)cc1C(=O)C(F)(F)C(F)(F)C(F)(F)F | 102 to 103 |
| CCN1CC(C(=O)Nc2cnccn2)CC2c3cccc4[nH]cc(c34)CC21 (configuration not stated) | 151 to 155 |
